From ChEMBL document CHEMBL1177838, “Synthesis and antiproliferative activity of indolizine derivatives incorporating a cyclopropylcarbonyl group against Hep-G2 cancer cell line” (Eur J Med Chem, 2010)
Values after ≈ are worked out from the molar mass of the structure shown.

Key:
HepG2 = assay: cells; conditions: Homo sapiens, HepG2, 48 h
Description: Cytotoxicity against human HepG2 cells after 48 hrs by MTT assay

[1] = target: Epidermal growth factor receptor (Homo sapiens, UniProt P00533); assay: Inhibition of human EGFR autophosphorylation expressed in Sf9 cells DELFIA assay; format: cell-based
Epidermal growth factor receptor, sequence (P00533 whole entry): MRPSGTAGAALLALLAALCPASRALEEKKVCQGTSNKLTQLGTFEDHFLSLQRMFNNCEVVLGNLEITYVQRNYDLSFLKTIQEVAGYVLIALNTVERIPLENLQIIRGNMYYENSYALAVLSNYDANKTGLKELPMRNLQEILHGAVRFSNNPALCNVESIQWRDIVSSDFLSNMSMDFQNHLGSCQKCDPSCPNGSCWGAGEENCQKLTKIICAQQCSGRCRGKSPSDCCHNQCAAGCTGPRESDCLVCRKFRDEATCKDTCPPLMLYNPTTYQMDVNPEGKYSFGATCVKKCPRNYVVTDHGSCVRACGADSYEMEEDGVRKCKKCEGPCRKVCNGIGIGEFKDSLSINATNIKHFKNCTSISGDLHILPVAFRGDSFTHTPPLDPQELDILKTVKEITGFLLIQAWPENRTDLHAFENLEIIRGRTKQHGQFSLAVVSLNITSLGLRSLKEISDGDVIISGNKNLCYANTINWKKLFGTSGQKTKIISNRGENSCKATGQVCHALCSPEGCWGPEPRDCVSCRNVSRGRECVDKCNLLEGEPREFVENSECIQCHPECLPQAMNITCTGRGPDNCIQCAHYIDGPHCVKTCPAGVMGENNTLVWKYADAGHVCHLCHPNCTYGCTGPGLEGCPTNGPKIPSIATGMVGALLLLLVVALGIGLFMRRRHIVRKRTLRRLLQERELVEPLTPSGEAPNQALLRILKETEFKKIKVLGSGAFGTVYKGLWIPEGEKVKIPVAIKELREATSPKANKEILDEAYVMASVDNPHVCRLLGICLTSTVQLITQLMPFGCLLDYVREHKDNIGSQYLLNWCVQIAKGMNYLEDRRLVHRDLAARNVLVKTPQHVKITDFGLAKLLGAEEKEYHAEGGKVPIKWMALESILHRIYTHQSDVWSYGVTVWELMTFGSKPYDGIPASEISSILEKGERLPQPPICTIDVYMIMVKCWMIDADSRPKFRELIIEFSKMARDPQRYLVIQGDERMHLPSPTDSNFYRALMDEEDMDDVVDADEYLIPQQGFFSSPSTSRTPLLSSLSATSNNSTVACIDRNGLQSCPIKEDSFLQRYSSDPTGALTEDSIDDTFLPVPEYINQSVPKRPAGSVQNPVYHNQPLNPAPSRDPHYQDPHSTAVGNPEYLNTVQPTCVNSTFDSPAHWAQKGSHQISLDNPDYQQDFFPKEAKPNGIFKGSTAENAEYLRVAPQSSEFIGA

Row | SMILES | IC50 (HepG2) | IC50 [1]
1 | N#Cc1cc(C(=O)C2CC2)n2c(Br)cccc12 | 1.8 µg/mL (≈ 6.23 µM) | –
2 | COC(=O)c1cc(C(=O)C2CC2)n2ccc(C)cc12 | 25 µg/mL (≈ 97.2 µM) | –
3 | Cc1ccn2c(C(=O)C3CC3)cc(C#N)c2c1 | 21 µg/mL (≈ 93.6 µM) | –
4 | COC(=O)c1cc(C(=O)C2CC2)n2ccc3ccccc3c12 | 9.3 µg/mL (≈ 31.7 µM) | –
5 | CCOC(=O)c1c(C(=O)OCC)c2cc(C)ccn2c1C(=O)C1CC1 | 0.29 µg/mL (≈ 0.845 µM) | –
6 | O=C(Nc1ccccc1)c1cc(C(=O)C2CC2)n2ccccc12 | 0.56 µg/mL (≈ 1.84 µM) | –
7 | N#Cc1cc(C(=O)C2CC2)n2c1ccc1ccccc12 | 2.1 µg/mL (≈ 8.07 µM) | –
8 | COC(=O)c1cc(C(=O)C2CC2)n2c1ccc1nccn12 | 25 µg/mL (≈ 88.2 µM) | –
9 | N#Cc1cc(C(=O)C2CC2)n2ccccc12 | 0.32 µg/mL (≈ 1.52 µM) | –
10 | CCOC(=O)c1c(C(=O)OCC)c2ccccn2c1C(=O)C1CC1 | 32 µg/mL (≈ 97.2 µM) | –
11 | O=C(c1c2c(c3ccccn13)C(=O)N(c1ccccc1)C2=O)C1CC1 | 0.48 µg/mL (≈ 1.45 µM) | –
12 | COC(=O)c1cc(C(=O)C2CC2)n2ccccc12 | 6.6 µg/mL (≈ 27.1 µM) | –
13 | N#Cc1cc(C(=O)C2CC2)n2c1ccc1nccn12 | 15 µg/mL (≈ 59.9 µM) | –
14 | Cc1ccc(Br)c2c(C#N)cc(C(=O)C3CC3)n12 | 0.2 µg/mL (≈ 0.66 µM) | 0.085 µM
15 | COC(=O)c1cc(C(=O)C2CC2)n2c(C)ccc(Br)c12 | 1.1 µg/mL (≈ 3.27 µM) | –
16 | COC(=O)c1cc(C(=O)C2CC2)n2c(Br)cccc12 | 2.5 µg/mL (≈ 7.76 µM) | –
17 | COC(=O)c1cc(C(=O)C2CC2)n2c1ccc1ccccc12 | 4.6 µg/mL (≈ 15.7 µM) | –
18 | COC(=O)c1c(C(=O)OC)c2c3ccccc3ccn2c1C(=O)C1CC1 | 27 µg/mL (≈ 76.8 µM) | –
19 | N#Cc1cc(C(=O)C2CC2)n2ccc3ccccc3c12 | 4.3 µg/mL (≈ 16.5 µM) | –
